Columns and labels:
wheat = test: Test A preemergence; type: in vivo, Triticum aestivum; conditions: Triticum aestivum, pre-emergence, 240 h, 0 to 100 scale (0 no effect, 100 complete control), read-out: Plant response rating, Wheat; for plant injury at 125 g/ha: 125 g ai/ha; for plant injury at 500 g/ha: 500 g ai/ha, approx. 10 d
How it was run: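 For preemergence, seeds were sown in a loam soil-sand blend and given a directed soil spray of test chemical in a non-phytotoxic solvent mixture with surfactant. For postemergence, plants in pots of the same blend were sprayed with the same formulation at the one- to two-leaf stage, 2 to 10 cm tall.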

morningglory = test: Test C preemergence; type: in vivo, Ipomoea coccinea; conditions: for Plant response rating (scale of 0 to 100 where 0 is no effect and 100 is complete control): Morningglory, preemergence; for Morningglory plant response rating (0 to 100): Preemergence, visual rating after 13 to 15 d
From the text: (§1) Seeds of plant species selected from blackgrass (Alopecurus myosuroides), ryegrass, Italian (Italian ryegrass, Lolium multiflorum), wheat (winter wheat, Triticum aestivum), galium (catchweed bedstraw, Galium aparine), corn (Zea mays), crabgrass, large (large crabgrass, Digitaria sanguinalis), foxtail, giant, (giant foxtail, Setaria faberii), johnsongrass (Sorghum halepense), lambsquarters (Chenopodium album), morningglory (Ipomoea coccinea), nutsedge, yellow (yellow nutsedge, Cyperus esculentus), pigweed (Amaranthus retroflexus), ragweed (common ragweed, Ambrosia elatior), soybean (Glycine max), barnyardgrass (Echinochloa crus-galli), oilseed rape (Brassica napus), waterhemp (common waterhemp, Amaranthus rudis), and velvetleaf (Abutilon theophrasti) were planted into a blend of loam soil and sand and treated preemergence with test chemicals formulated in a non-phytotoxic solvent mixture which included a surfactant. At the same time, plants selected from these crop and weed species and also chickweed (common chickweed, Stellaria media), oat, wild (wild oat, Avena fatua), and kochia (Kochia scoparia), were planted in pots containing Sunshine Redi-Earth® planting medium comprising spaghnum peat moss, vermiculite, starter nutrients and dolomitic limestone and treated with postemergence applications of test chemicals formulated in the same manner. Plants ranged in height from 2 to 18 cm (1- to 4-leaf stage) for postemergence treatments. […] A dash (-) response means no test result.

nutsedge, yellow = test: Test C preemergence; type: in vivo, Cyperus esculentus; conditions: for Plant response rating (scale of 0 to 100 where 0 is no effect and 100 is complete control): Nutsedge, Yellow, preemergence; for Nutsedge, Yellow plant response rating (0 to 100): Preemergence, visual rating after 13 to 15 d
From the text: as §1

ryegrass, Italian = test: Test C preemergence; type: in vivo, Lolium multiflorum; conditions: for Ryegrass, Italian plant response rating (0 to 100): Preemergence, visual rating after 13 to 15 d; for Plant response rating (scale of 0 to 100 where 0 is no effect and 100 is complete control): Ryegrass, Italian, preemergence
From the text: as §1

SMILES: CCn1nc(-c2ccc(F)cc2)nc1C(=O)c1ccnc(C(F)(F)F)c1 [Compound 19, [1-ethyl-3-(4-fluorophenyl)-1H-1,2,4-triazol-5-yl][2-(trifluoromethyl)-4-pyridinyl]methanone]
- plant injury at 125 g/ha (wheat): 0%
- plant injury at 500 g/ha (wheat): 0%

SMILES: CCCc1nc(-c2ccc(F)cc2)nn1Cc1ccnc(C(F)(F)F)c1 [Compound 6, 4-[[3-(4-fluorophenyl)-5-propyl-1H-1,2,4-triazol-1-yl]methyl]-2-(trifluoromethyl)pyridine]
- Plant response rating (scale of 0 to 100 where 0 is no effect and 100 is complete control) (morningglory; 125 g ai/ha): 75
- Plant response rating (scale of 0 to 100 where 0 is no effect and 100 is complete control) (morningglory; 250 g ai/ha): 100
- Morningglory plant response rating (0 to 100) (morningglory; 31 g ai/ha): 45
- Morningglory plant response rating (0 to 100) (morningglory; 62 g ai/ha): 60
- Plant response rating (scale of 0 to 100 where 0 is no effect and 100 is complete control) (nutsedge, yellow; 125 g ai/ha): 35
- Plant response rating (scale of 0 to 100 where 0 is no effect and 100 is complete control) (nutsedge, yellow; 250 g ai/ha): 50
- Nutsedge, Yellow plant response rating (0 to 100) (nutsedge, yellow; 31 g ai/ha): 25
- Nutsedge, Yellow plant response rating (0 to 100) (nutsedge, yellow; 62 g ai/ha): 30
- Ryegrass, Italian plant response rating (0 to 100) (ryegrass, Italian; 31 g ai/ha): 30
- Ryegrass, Italian plant response rating (0 to 100) (ryegrass, Italian; 62 g ai/ha): 70
- Plant response rating (scale of 0 to 100 where 0 is no effect and 100 is complete control) (ryegrass, Italian; 125 g ai/ha): 80
- Plant response rating (scale of 0 to 100 where 0 is no effect and 100 is complete control) (ryegrass, Italian; 250 g ai/ha): 100
- plant injury at 125 g/ha (wheat): 10%
- plant injury at 500 g/ha (wheat): 60%

SMILES: CS(=O)(=O)c1nc(-c2ccc(F)cc2)nn1Cc1ccnc(C(F)(F)F)c1 [Compound 29, 4-[[3-(4-fluorophenyl)-5-(methylsulfonyl)-1H-1,2,4-triazole-1-yl]methyl]-2-(trifluoromethyl)pyridine]
- plant injury at 125 g/ha (wheat): 0%
- plant injury at 500 g/ha (wheat): 0%

SMILES: CCn1nc(-c2ccc(F)cc2)nc1C(O)c1ccnc(C(F)(F)F)c1 (stereo not drawn) [Compound 15, α-[1-Ethyl-3-(4-fluorophenyl)-1H-1,2,4-triazol-5-yl]-2-(trifluoromethyl)-4-pyridinemethanol]
- plant injury at 125 g/ha (wheat): 0%
- plant injury at 500 g/ha (wheat): 0%

SMILES: Cn1nc(-c2ccc(F)cc2)nc1Oc1cccc(C(F)(F)F)c1 [Compound 5, 3-(4-fluorophenyl)-1-methyl-5-[3-(trifluoromethyl)phenoxy]-1H-1,2,4-triazole]
- plant injury at 125 g/ha (wheat): 0%
- plant injury at 500 g/ha (wheat): 0%

SMILES: COc1nc(-c2ccc(F)cc2)nn1Cc1ccnc(C(F)(F)F)c1 [Compound 9, 4-[[3-(4-fluorophenyl)-5-methoxy-1H-1,2,4-triazol-1-yl]methyl]-2-(trifluoromethyl)pyridine]
- Plant response rating (scale of 0 to 100 where 0 is no effect and 100 is complete control) (morningglory; 125 g ai/ha): 45
- Plant response rating (scale of 0 to 100 where 0 is no effect and 100 is complete control) (morningglory; 250 g ai/ha): 90
- Morningglory plant response rating (0 to 100) (morningglory; 31 g ai/ha): 5
- Morningglory plant response rating (0 to 100) (morningglory; 62 g ai/ha): 45
- Plant response rating (scale of 0 to 100 where 0 is no effect and 100 is complete control) (nutsedge, yellow; 125 g ai/ha): 35
- Plant response rating (scale of 0 to 100 where 0 is no effect and 100 is complete control) (nutsedge, yellow; 250 g ai/ha): 50
- Nutsedge, Yellow plant response rating (0 to 100) (nutsedge, yellow; 31 g ai/ha): 10
- Nutsedge, Yellow plant response rating (0 to 100) (nutsedge, yellow; 62 g ai/ha): 5
- Ryegrass, Italian plant response rating (0 to 100) (ryegrass, Italian; 31 g ai/ha): 5
- Ryegrass, Italian plant response rating (0 to 100) (ryegrass, Italian; 62 g ai/ha): 25
- Plant response rating (scale of 0 to 100 where 0 is no effect and 100 is complete control) (ryegrass, Italian; 125 g ai/ha): 65
- Plant response rating (scale of 0 to 100 where 0 is no effect and 100 is complete control) (ryegrass, Italian; 250 g ai/ha): 85
- plant injury at 125 g/ha (wheat): 0%
- plant injury at 500 g/ha (wheat): 50%

SMILES: Cn1nc(-c2ccc(F)cc2)nc1C(O)c1ccnc(C(F)(F)F)c1 (stereo not drawn) [Compound 14, α-[3-(4-fluorophenyl)-1-methyl-1H-1,2,4-triazol-5-yl]-2-(trifluoromethyl)-4-pyridinemethanol]
- plant injury at 125 g/ha (wheat): 0%
- plant injury at 500 g/ha (wheat): 0%

SMILES: CCCn1nc(-c2ccc(F)cc2)nc1Cc1ccnc(C(F)(F)F)c1 [Compound 17, 4-[[3-(4-fluorophenyl)-1-propyl-1H-1,2,4-triazol-5-yl]methyl]-2-(trifluoromethyl)pyridine]
- plant injury at 125 g/ha (wheat): 30%
- plant injury at 500 g/ha (wheat): 70%
